Reference: patent US8329693B2, “Method for the prevention of thromboembolic disorders” (Orion Corporation, priority 2004, dated 2012)

Test system: salt sensitive rat model
Experiment: Stroke in salt sensitive rat model (summary statements)
Format: in vivo
Details: preventative treatment

CC(=O)Nc1ccc(C2=NNC(=O)C[C@H]2C)cc1 [metabolite (II), (R)—N-[4-(1,4,5,6-tetrahydro-4-methyl-6-oxo-3-pyridazinyl)phenyl]acetamide]
incidence and volume of brain lesions, behavioural disorders and mortality associated with stroke: markedly reduce
